# Source: patent publication US6462086B1, “Non-malignant disease treatment with Ras antagonists” (Ramot University Authority for Applied Research and …, priority 1999, dated 2002)
# “Also recorded” adds a separate entry of the source.
# How the values were obtained:
# [1] = tested on: lymphocytes from draining lymph nodes of EAE SJL mice; test: Ex vivo proliferative responses of lymph node lymphocytes from FTS-treated EAE mice; type: in vivo, mouse; conditions: for proliferative response of lymphocytes (cpm): FTS 5 mg/Kg i.p. daily, day 10
# [2] = tested on: Wistar rats; type: in vivo
# Protocol: The FTS was dissolved in PBS and administered i.p. 3 times a week to rats according to their assigned groups. Four groups containing 6 rats each were treated as follows. One group received TAA 200 mg/kg i.p. twice a week and i.p. injections of PBS 3 days a week for 12 weeks (cirrhotic controls for the FTS-treated groups). A second group received TAA for 12 weeks and FTS 5 mg/kg, 3 times a week. […] The two control groups consisted of one that received PBS injections without TAA for 12 weeks (normal controls) and a group of 5 rats that received only FTS 5 mg/kg i.p. for 12 weeks to monitor the appearance of adverse effects.
# In order to monitor the presence of adverse effects caused by the prolonged administration of FTS, a control group received the Ras antagonist for 12 weeks.
# [3] = tested on: MRL/lpr mice; test: Lymphadenopathy and splenomegaly in MRL mice; type: in vivo, mouse
# Protocol: The development of generalized lymphadenopathy in the MRL/lpr mice (saline and FTS-treated) was evaluated by palpation of axillary and inguinal lymph nodes. The maximal lymph nodes score in each mouse was 4, when both axillary and inguinal lymph nodes (in both sides) were palpable. At 18 weeks of age the mice were sacrificed and the spleens and lymph nodes (axillary, inguinal and cervical) were removed and weighed.
# [4] = tested on: human HSC; test: PDGF-stimulated DNA synthesis ([3H]TdR) in human hepatic stellate cells; type: cell-based; conditions: PDGF-BB 10 ng/ml; 24 h FTS
# Protocol: Human HSCs were isolated from wedge sections of normal human liver unsuitable for transplantation as previously reported (6, 7). Briefly, after a combined digestion with collagenase/pronase, HSCs were separated from other liver nonparenchymal cells by ultracentrifugation over gradients of stractan (Cellsep™ isotonic solution, Larex Inc., St. Paul, Minn.). Extensive characterization was performed as described in (7). Cells were cultured on plastic culture dishes (Falcon, Becton Dickinson, Lincoln Park, N.J.) in Iscove's modified Dulbecco's medium supplemented with 0.6 U/ml insulin, 2.0 mmol/L glutamine, 0.1 mmol/L nonessential amino acids, 1.0 mmol/L sodium pyruvate, antibiotic antifungal solution (all provided by Gibco Laboratories, Grand Island, N.Y.) and 20% fetal bovine serum (Imperial Laboratories, Andover, U.K.). Experiments described in this study were performed on cells between third and fifth serial passages (1:3 split ratio) using three independent cell lines.
# DNA synthesis was measured as the amount of [Methyl-^3H]thymidine ([^3 H]TdR) incorporated into trichloroacetic acid-precipitable material. […] At the end of the pulsing period, [^3H]TdR incorporation into cellular DNA was measured as previously reported (8). Cell number was determined in three separate wells from each dish and results were expressed as cpm/10^5 cells.
# [5] = tested on: MRL/lpr mice; test: Disease activity in MRL/lpr mice (proteinuria, lymphadenopathy, grip strength; Example 4); type: in vivo, mouse
# Protocol: One of the important measures of disease activity in MRL/lpr mice is proteinuria. Levels of proteinura were measured weekly by means of dip-sticks in MRL/lpr and Mrl/++ mice treated daily with FTS or with vehicle alone. Significant proteinuria developed in the MRL/lpr treated with vehicle compared to the MRL/++ groups. […] Other systemic measures of disease activity including lymphadenopathy and lymphocyte proliferation were normalized in FTS treated MRL/lpr mice (not shown).
# [6] = tested on: lymphocyte surface markers (CD3, CD4, CD8, IA-k, Vb17, CD62L); test: FACS analysis of surface markers on lymph node lymphocytes of EAE mice; type: in vivo, mouse; conditions: percentages of positively stained cells among 10,000; EAE mice + FTS, day 10
# Protocol: Single cell suspensions were prepared from the draining lymph nodes of mice in which EAE was induced, on day 10 post immunization for EAE-induction. Cells were incubated on ice, for 30 min with 20 μl of the monoclonal FITC-conjugated anti-CD62L, anti-IA-k ([…]) and anti-Vb17 antibodies (Becton and Dickinson, USA). The proportions of cells expressing these surface markers were examined by a fluoresecence activated cell sorter (FACS), and were calculated as the percentages of positively stained cells among 10,000 cells enumerated.
# [7] = tested on: lymphocytes of EAE mice; test: In vitro mitogenic response (LPS, PLP 139-151 peptide) of lymph node lymphocytes of EAE mice; type: cell-based, mouse; conditions: 25 microM FTS; lymphocytes of EAE mice day 10
# [8] = tested on: MRL/lpr mice; test: Open field test in MRL mice; type: in vivo, mouse; conditions: 20 minutes
# Protocol: Saline-treated and FTS-treated MRL/lpr and saline-treated MRL/++ mice (n=5), were tested for spatial behavior in a novel environment in an open field. The apparatus comprised of a circular pool (120 cm diameter by 50 cm high) placed in a lighted room. The test was conducted during the light phase of day-night cycle. The mice were brought to the experimental room 1 hour before testing. Each mouse was removed gently from its cage, placed individually at the center of the field, and videotaped with a camcorder for 20 minutes. At the end of each session the pool was cleaned with paper towels moistened with ammonium glass cleaner to remove urinary trails. The frequency and duration of progression or stopping in the open field was analyzed during playback of the video records by software custom-written by Dr. David Eilam (Life Sciences Department, Tel-Aviv University). Total distance traveled, locomotion time, speed of moving, spatial distribution of explorations and latency for establishing a home base, and duration of staying there, were extracted.
# [9] = tested on: lymphocytes from naive SJL mice; test: ConA- and LPS-induced proliferation of lymphocytes from naive SJL mice in vitro (3H-thymidine); type: cell-based; conditions: Mus musculus, Lymphocyte, 48 h stimulation
# [10] = FTS-treated mice compared to controls
smiles,measurement,setting,value
"CC(C)=CCC/C(C)=C/CC/C(C)=C/CSc1ccccc1C(=O)O [FTS, farnesyl thiosalicylic acid]",change of reactivity to ConA,[1]; [10],no change of reactivity
same,decrease in the reactivity of lymphocytes to GMBP,[1]; [10],83%
same,decrease in the reactivity of lymphocytes to PLP-peptide,[1]; [10],72%
same,decrease of the reactivity to PPD and to LPS,[1]; [10],50-57%
same,proliferative response of lymphocytes (cpm),[1]; antigen: GMBP,"7,864 ± 636 cpm"
same,stimulation index (S.I.),"[1]; antigen: GMBP, FTS-treated EAE mice",1.8
same,proliferative response of lymphocytes (cpm),[1]; antigen: PLP,"8,901 ± 2,014 cpm"
same,stimulation index (S.I.),"[1]; antigen: PLP, FTS-treated EAE mice",2.1
same,proliferative response of lymphocytes (cpm),[1]; antigen: PPD,"27,342 ± 3,627 cpm"
same,stimulation index (S.I.),"[1]; antigen: PPD, FTS-treated EAE mice",6.4
same,proliferative response of lymphocytes (cpm),[1]; antigen: none,"4,266 ± 508 cpm"
same,reduction in response to myelin specific antigens,"[1]; ex vivo, FTS-treated EAE mice",> 78%
same,proliferative response of lymphocytes (cpm),[1]; mitogen: ConA,"86,870 ± 7,483 cpm"
same,stimulation index (S.I.),"[1]; mitogen: ConA, FTS-treated EAE mice",20.4
same,proliferative response of lymphocytes (cpm),[1]; mitogen: LPS,"45,196 ± 4,246 cpm"
same,stimulation index (S.I.),"[1]; mitogen: LPS, FTS-treated EAE mice",10.6
same,mortality and adverse effects,[2]; FTS 5 mg/kg alone for 12 weeks,no mortality or major adverse effects
same,survival after 12 weeks,"[2]; TAA+FTS, n=6",none of the rats died
same,spleen weight,"[3]; MRL/++ mice, untreated 0.13±0.01",0.19 ± 0.03 g
same,lymphadenopathy (palpation score),[3]; MRL/lpr mice,significantly delayed; also recorded: significantly less
same,weight of excised lymph nodes,[3]; MRL/lpr mice,significant effect of FTS; also recorded: significantly less
same,spleen weight,"[3]; MRL/lpr mice, 17 weeks, mean±SE, untreated 0.54±0.04",0.41 ± 0.04 g
same,FTS concentration affecting PDGF-stimulated 3H-thymidine incorporation into DNA,[4],25 to 50 µM
same,lymphadenopathy and lymphocyte proliferation,[5]; MRL/lpr mice,normalized
same,weakness as measured by grip strength on a horizontal bar,[5]; MRL/lpr mice,normalized by FTS treatment
same,"proteinuria (dip-sticks, FIG. 15)",[5]; MRL/lpr mice treated daily,did not develop significant proteinuria
same,proportion of lymphocytes expressing CD3,[6],94.2 ± 2.7
same,proportion of lymphocytes expressing CD4,[6],51.6 ± 1.9
same,proportion of lymphocytes expressing CD8,[6],26.2 ± 9.2
same,proportion of lymphocytes expressing CD62L,[6],67.1 ± 7.3
same,proportion of lymphocytes expressing IA-k,[6],28.3 ± 3.2
same,proportion of lymphocytes expressing Vb17,[6],11.3 ± 2.1
same,suppression of the LPS mitogenic response,[7],91%
same,suppression of the PLP mitogenic response,[7],62%
same,open field: time spent in the center,[8],significant effect on the time spent in the center
same,open field: total distance covered,[8],no effect on the total distance covered
same,inhibition at 12.5 µM,[9]; 12.5 μM FTS,22 to 50%
same,inhibition at 25 µM,[9]; 25 μM FTS,66 to 71%
same,inhibition at 50 µM,[9]; 50 μM FTS,95 to 98%
